The test addresses T1, human MMP-13 catalytic domain (hMMP-13CD) (Homo sapiens, UniProt P45452).
T1 construct: a human MMP-13 catalytic domain (“hMMP-13CD”)
Put plainly: Inhibition of MMP-13 catalytic domain (thiopeptolide substrate hydrolysis, IC50). The format is biochemical. The source says: The assays measure the amount by which a test compound reduces the hydrolysis of a thiopeptolide substrate catalyzed by a matrix metalloproteinase enzyme. Such assays are described in detail by Ye et al., in Biochemistry, 1992;31(45):11231-11235, which is incorporated herein by reference. One such assay is described below in Biological Method 1.
Some of the particular methods described below use the catalytic domain of the MMP-13 enzyme, namely matrix metalloproteinase-13 catalytic domain (“MMP-13CD”), rather than the corresponding full-length enzyme, MMP-13. It has been shown previously by Ye Qi-Zhuang, Hupe D., and Johnson L. (Current Medicinal Chemistry, 1996;3:407-418) that inhibitor activity against a catalytic domain of an MMP is predictive of the inhibitor activity against the respective full-length MMP enzyme.
Thiopeptolide substrates show virtually no decomposition or hydrolysis at or below neutral pH in the absence of a matrix metalloproteinase enzyme. A typical thiopeptolide substrate commonly utilized for assays is Ac-Pro-Leu-Glythioester-Leu-Leu-Gly-OEt. […] The change in absorbance at 405 nm is monitored on a Thermo Max microplate reader (molecular Devices, Menlo Park, Calif.) at room temperature (22° C.). […]
Some representative compounds of Formula I have been evaluated for their ability to inhibit MMP-13. […]

On to `O=C(O)c1ccc(Cn2ccc3ccc(C#CCn4ccnn4)cc3c2=O)cc1` [4-[1-oxo-7-(3-[1,2,3]triazol-1-ylprop-1-ynyl)-1H-isoquinolin-2-ylmethyl]benzoic acid], for which the IC50 – broadly, the midpoint of a concentration-inhibition curve – is greater than 50 µM.

For the origin of these results see patent US6974822B2, “3-isoquinolinone derivatives as matrix metalloproteinase inhibitors” (Warner-Lambert Company LLC, priority 2002, dated 2005).
